Data published in patent publication US7365231B2, “Compound with antitumor activity and preparation method therefor” (National Taiwan University of Science & Technology, priority 2005, dated 2008).

Key:
Assay in all cases: NCI panel growth inhibition, sulforhodamine B
A498 = format: cell-based; conditions: Homo sapiens; A498, Renal cancer; drug for last 48 h of 72 h
Source text: (§1) Comparison of anticancer activities of the 1,3-substituted adamantane derivatives, 1,3-bis(4-aminophenyl)adamantane (1,3-DPANH2), 1,3-bis(4-(4-aminophenoxy)phenyl)adamantane (1,3-DPAONH2), 1,3-bis(4-(4-amino-3-hydroxy)phenyl)adamantane (1,3-DPA/OH/NH2) and 1,3-bis(4-(4-amino-2-trifluoromethylphenoxy)phenyl)adamantane (1,3-DPA/CF3/NH2) as shown in FIG. 1 were synthesized in the present invention. Those compounds were submitted to the National Cancer Institute for anticancer assay in culture against a standard panel of cell lines. […] To further confirm that the different substituents (CF3 and OH) on the phenyl ring of 1,3-DPAONH2 affect the growth inhibition of cancer cells. […] The transformations of 1,3-DPAONH2 to 1,3-DPA/OH/NH2 led to a remarked enhancement of anticancer activity toward all the tested cancer lines. The role of the OH group at the ortho position of the NH2 on growth inhibition is remarkable. In addition, one compound (1,3-DPA/OH/NH2) was confirmed to have an IC50 of <1 μM against one of the cells (BT-549 breast carcinoma). Comparison of anticancer activities of 1,3-substituted diaminophenyladamantane derivatives, the following order of potency against the tested cancer lines was observed: 1,3-DPA/OH/NH2>1,3-DPAONH2>1,3-DPANH2>1,3-DPA/CF3/NH2.

A549/ATCC = format: cell-based; conditions: Homo sapiens, NSCLC, drug for last 48 h of 72 h
Source text: as §1

CAKI-1 = format: cell-based; conditions: Homo sapiens; CAKI-1, Renal cancer; drug for last 48 h of 72 h
Source text: as §1

COLO 205 = format: cell-based; conditions: Homo sapiens; COLO 205, Colon cancer; drug for last 48 h of 72 h
Source text: as §1

EKVX = format: cell-based; conditions: Homo sapiens, NSCLC, drug for last 48 h of 72 h
Source text: as §1

HCT-116 = format: cell-based; conditions: Homo sapiens; HCT-116, Colon cancer; drug for last 48 h of 72 h
Source text: as §1

HCT-15 = format: cell-based; conditions: Homo sapiens; HCT-15, Colon cancer; drug for last 48 h of 72 h
Source text: as §1

K-562 = format: cell-based; conditions: Homo sapiens, K562; K-562, Leukemia; drug for last 48 h of 72 h
Source text: as §1

M14 = format: cell-based; conditions: Homo sapiens; M14, Melanoma; drug for last 48 h of 72 h
Source text: as §1

MCF-7 = format: cell-based; conditions: Homo sapiens, MCF7; MCF-7, Breast cancer; drug for last 48 h of 72 h
Source text: as §1

MDA-MB-435 = format: cell-based; conditions: Homo sapiens; MDA-MB-435, Breast cancer; drug for last 48 h of 72 h
Source text: as §1

MDA-N = format: cell-based; conditions: Homo sapiens, Breast cancer, drug for last 48 h of 72 h
Source text: as §1

MOLT-4 = format: cell-based; conditions: Homo sapiens; MOLT-4, Leukemia; drug for last 48 h of 72 h
Source text: as §1

NCI-H522 = format: cell-based; conditions: Homo sapiens; NCI-H522, NSCLC; drug for last 48 h of 72 h
Source text: as §1

OVCAR-3 = format: cell-based; conditions: Homo sapiens; OVCAR-3, Ovarian cancer; drug for last 48 h of 72 h
Source text: as §1

OVCAR-5 = format: cell-based; conditions: Homo sapiens; OVCAR-5, Ovarian cancer; drug for last 48 h of 72 h
Source text: as §1

PC-3 = format: cell-based; conditions: Homo sapiens; PC-3, Prostate cancer; drug for last 48 h of 72 h
Source text: as §1

SK-MEL-28 = format: cell-based; conditions: Homo sapiens; SK-MEL-28, Melanoma; drug for last 48 h of 72 h
Source text: as §1

SK-MEL-2 = format: cell-based; conditions: Homo sapiens; SK-MEL-2, Melanoma; drug for last 48 h of 72 h
Source text: as §1

SK-MEL-5 = format: cell-based; conditions: Homo sapiens; SK-MEL-5, Melanoma; drug for last 48 h of 72 h
Source text: as §1

SN12C = format: cell-based; conditions: Homo sapiens, Renal cancer, drug for last 48 h of 72 h
Source text: as §1

SNB-19 = format: cell-based; conditions: Homo sapiens; SNB-19, CNS cancer; drug for last 48 h of 72 h
Source text: as §1

SW-620 = format: cell-based; conditions: Homo sapiens; SW-620, Colon cancer; drug for last 48 h of 72 h
Source text: as §1

TK-10 = format: cell-based; conditions: Homo sapiens; TK-10, Renal cancer; drug for last 48 h of 72 h
Source text: as §1

U251 = format: cell-based; conditions: Homo sapiens, U-251; U251, CNS cancer; drug for last 48 h of 72 h
Source text: as §1

UACC-257 = format: cell-based; conditions: Homo sapiens; UACC-257, Melanoma; drug for last 48 h of 72 h
Source text: as §1

UO-31 = format: cell-based; conditions: Homo sapiens; UO-31, Renal cancer; drug for last 48 h of 72 h
Source text: as §1

BT-549 = format: cell-based, human; conditions: drug for last 48 h of 72 h
Source text: as §1

NCI/ADR-RES = format: cell-based, human; conditions: Breast cancer, drug for last 48 h of 72 h
Source text: as §1

SF-295 = format: cell-based, human; conditions: drug for last 48 h of 72 h
Source text: as §1

[1] = Homo sapiens, BT-549, BT-549, Breast cancer
[2] = Homo sapiens, SF-295, SF-295, CNS cancer

Row | Compound | IC50 (A498) | IC50 (CAKI-1) | IC50 (EKVX) | IC50 (HCT-116) | IC50 (HCT-15) | IC50 (K-562) | IC50 (M14) | IC50 (MCF-7) | IC50 (MDA-N) | IC50 (MOLT-4) | IC50 (OVCAR-3) | IC50 (SK-MEL-28) | IC50 (SK-MEL-2) | IC50 (SN12C) | IC50 (SNB-19) | IC50 (SW-620) | IC50 (TK-10) | IC50 (U251) | IC50 (UACC-257) | IC50 (UO-31) | further results
1 | Nc1ccc(Oc2ccc(C34CC5CC(C3)CC(c3ccc(Oc6ccc(N)cc6C(F)(F)F)cc3)(C5)C4)cc2)c(C(F)(F)F)c1 [1,3-DPA/CF3/NH2, 1,3-bis-(4-(4-amino-2-trifluoromethylphenoxy)phenyl)adamantane] | 18.3 µM | 28.1 µM | 15.4 µM | 24.9 µM | 31.8 µM | 43.9 µM | 16.9 µM | 13.4 µM | 36.7 µM | 35.7 µM | 17.9 µM | 43.2 µM | 14.1 µM | 31.1 µM | 22.5 µM | 36.3 µM | 16.1 µM | 14.5 µM | 18.7 µM | 39.1 µM | IC50 (A549/ATCC): 19 µM; IC50 (COLO 205): 19.1 µM; IC50 (MDA-MB-435): 24.2 µM; IC50 (NCI-H522): 14.4 µM; IC50 (OVCAR-5): 27 µM; IC50 (PC-3): 14.8 µM; IC50 (SK-MEL-5): 22 µM; IC50 (BT-549; [1]): 21.9 µM; IC50 (NCI/ADR-RES; Homo sapiens): 21.7 µM; IC50 (SF-295; [2]): 25.3 µM
2 | Nc1ccc(Oc2ccc(C34CC5CC(C3)CC(c3ccc(Oc6ccc(N)c(O)c6)cc3)(C5)C4)cc2)cc1O [1,3-DPA/OH/NH2, 1,3-bis-(4-(4-amino-3-hydroxyphenoxy)phenyl)adamantane] | 4.54 µM | 1.82 µM | 1.68 µM | 1.39 µM | 1.76 µM | 3.46 µM | 1.59 µM | 1.85 µM | 1.58 µM | 2.42 µM | 1.85 µM | 2.74 µM | 2.45 µM | 1.74 µM | 1.31 µM | 2.89 µM | 5.57 µM | 1.3 µM | 2.23 µM | 1.95 µM | IC50 (A549/ATCC): 1.52 µM; IC50 (COLO 205): 1.84 µM; IC50 (MDA-MB-435): 1.92 µM; IC50 (NCI-H522): 1.4 µM; IC50 (PC-3): 1.94 µM; IC50 (SK-MEL-5): 1.88 µM; IC50 (BT-549; BT-549, Breast cancer): 0.565 µM; IC50 (BT-549; [1]): < 1 µM; IC50 (NCI/ADR-RES; Homo sapiens): 2.32 µM; IC50 (SF-295; [2]): 2.29 µM
3 | Nc1ccc(C23CC4CC(C2)CC(c2ccc(N)cc2)(C4)C3)cc1 [1,3-DPANH2, 1,3-bis(4-aminophenyl)adamantane] | 15.7 µM | > 100 µM | 36.6 µM | 44.3 µM | 14.5 µM | 14.6 µM | 37.1 µM | 31.9 µM | 37.7 µM | 11.3 µM | 48.5 µM | 15 µM | 35.9 µM | 25.1 µM | 37.8 µM | 3.14 µM | > 100 µM | 14.3 µM | 75.5 µM | 4.87 µM | IC50 (A549/ATCC): > 100 µM; IC50 (COLO 205): 2.3 µM; IC50 (OVCAR-5): 27.6 µM; IC50 (SK-MEL-5): 13.1 µM; IC50 (BT-549; [1]): 42.8 µM; IC50 (NCI/ADR-RES; Homo sapiens): 56.8 µM; IC50 (SF-295; [2]): 16.4 µM
4 | Nc1ccc(Oc2ccc(C34CC5CC(C3)CC(c3ccc(Oc6ccc(N)cc6)cc3)(C5)C4)cc2)cc1 [1,3-DPAONH2, 1,3-bis(4-(4-aminophenoxy)phenyl)adamantane] | 18 µM | 12.1 µM | 15.6 µM | 5.65 µM | 4.99 µM | 7.08 µM | 9.62 µM | 2.89 µM | 4.33 µM | 3.81 µM | 3.08 µM | 18.8 µM | 15.7 µM | 5.76 µM | 8.66 µM | 6.52 µM | 24.9 µM | 7.9 µM | 12.5 µM | 13.6 µM | IC50 (A549/ATCC): 10.3 µM; IC50 (COLO 205): 13.3 µM; IC50 (MDA-MB-435): 5.22 µM; IC50 (NCI-H522): 13.3 µM; IC50 (OVCAR-5): 19.1 µM; IC50 (PC-3): 11.5 µM; IC50 (SK-MEL-5): 13.8 µM; IC50 (BT-549; [1]): 4.02 µM; IC50 (NCI/ADR-RES; Homo sapiens): 8.59 µM; IC50 (SF-295; [2]): 6.91 µM
5 | Nc1ccc(C2(c3ccc(N)cc3)C3CC4CC(C3)CC2C4)cc1 [2,2-DPANH2, 2,2-bis(4-aminophenyl)adamantane] | 21 µM | 15 µM | 16.4 µM | 20.9 µM | 21.9 µM | 10.3 µM | 14.9 µM | 19.4 µM | 18.6 µM | 4.96 µM | 10.9 µM | 14.9 µM | 18.5 µM | 18.6 µM | 14.6 µM | 11.4 µM | 18 µM | 18.6 µM | 19.2 µM | 18.3 µM | IC50 (MDA-MB-435): 14.7 µM; IC50 (NCI-H522): 15.6 µM; IC50 (OVCAR-5): 15.8 µM; IC50 (PC-3): 14.9 µM; IC50 (BT-549; [1]): 11.2 µM; IC50 (NCI/ADR-RES): 0.079 µM; IC50 (NCI/ADR-RES; Homo sapiens): < 0.1 µM; IC50 (SF-295; [2]): < 0.1 µM; IC50 (SF-295; SF-295, CNS cancer): 0.059 µM
6 | Nc1ccc(Oc2ccc(C3(c4ccc(Oc5ccc(N)cc5)cc4)C4CC5CC(C4)CC3C5)cc2)cc1 [2,2-DPAONH2, 2,2-bis(4-(4-aminophenoxy)phenyl)adamantane] | 2.91 µM | 11.1 µM | 4.76 µM | 2.71 µM | 4.94 µM | 3.89 µM | 2.28 µM | 3.81 µM | 2.74 µM | 4.27 µM | 2.58 µM | 10.5 µM | 16.8 µM | 3.65 µM | 10.1 µM | 5.03 µM | 14.3 µM | 2.81 µM | 5.76 µM | 3.02 µM | IC50 (A549/ATCC): 3.38 µM; IC50 (COLO 205): 2.71 µM; IC50 (MDA-MB-435): 6.04 µM; IC50 (NCI-H522): 4.28 µM; IC50 (OVCAR-5): 15.3 µM; IC50 (PC-3): 6.75 µM; IC50 (SK-MEL-5): 8.38 µM; IC50 (BT-549; [1]): 4.28 µM; IC50 (NCI/ADR-RES; Homo sapiens): 15.8 µM; IC50 (SF-295; [2]): 6.76 µM
